Assays:
[1] = test system: IL-1β, IL-6, KC and TNFα; experiment: Air sacculitis (MSU-induced air sacs), cytokines in lavage fluid; details: 5 mg/kg (dexamethasone intraperitoneal, colchicine intragastric), lavage fluid supernatant, mean, n = 8
Description: (§1) The sterile MSU crystals were added to 5 mL of sterilized saline before injected into air sacs.
(§2) Male Wistar rats were raised for one week and then randomly divided into 6 groups. Animals were anesthetized and then injected with 24 mL of sterile air in their backs. The animals received the second injection of air 4 days later. On day 7, the rats in the blank group and model group were intragastrically administered with the solvent at a dose of 10 mL/kg; the rats in the dexamethasone group were administered by intraperitoneal injection with dexamethasone at a dose of 5 mg/kg; the rats in the colchicine group were intragastrically administered with colchicine at a dose of 5 mg/kg. […] One hour after administration, the rats in the blank group were injected with 5 mL of saline into the air sacs at the back, and the rats from other groups were injected with 5 mL of MSU crystal suspension (1 mg/mL) into the air sacs at the back. Four hours later, the lavage fluid in the air sacs was taken, and a portion of the lavage fluid was used for cytological analysis. The remaining was centrifuged at 8000 rpm for 15 min, and the supernatant was stored at −80° C. for the detection of cytokines IL-1β, IL-6, KC and TNFα. The test results were shown as mean±SEM and statistically analyzed by t-test.

[2] = test system: MSU-induced air sacs; experiment: Air sacculitis (MSU-induced air sacs), leukocyte counts in lavage fluid; details: for Leukocyte count: Basophil / Leukocyte count: Eosinocyte / Leukocyte count: Lymphocyte / Leukocyte count: Monocyte / Leukocyte count: Neutrophil / Total cell count: 5 mg/kg (dexamethasone intraperitoneal, colchicine intragastric), lavage fluid 4 h after MSU, mean ± SEM, n = 8;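 as to all read-outs here: male Wistar rats with dorsal air sacs, dosed 1 h before injecting MSU crystal suspension, compared with saline-injected blank and vehicle-treated model groups, cytological analysis of lavage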
Description: as §1, §2

[3] = Pharmacokinetics experiment in cynomolgus monkeys, intravenous; format: in vivo, cynomolgus monkeys (Macaca fascicularis); details: 3 mg/kg, Mean ± SD, n = 3
Description: Three non-naïve cynomolgus monkeys were administered with test compounds A, B and D at a dose of 5 mg/kg by intravenous injection and with test compound C at a dose of 3 mg/kg by intravenous injection, with one compound being tested at a time. Blood was collected from the vein before administration and 1 h, 3 h, 6 h and 24 h after administration, and plasma was isolated. The plasma was analyzed by a 4000 Q Trap LC-MS/MS instrument. The concentrations of the test samples were output by Analyst 1.6.1 from AB Company. The parameters ( ) such as the mean, standard deviation, and coefficient of variation were calculated using Microsoft Excel, wherein the values directly output by Analyst 1.6.1 requires no calculation. PK parameters were calculated using Pharsight Phoenix 6.2 software (NCA model).

[4] = test system: serum uric acid; experiment: Uric acid-lowering experiment in cynomolgus monkeys; format: in vivo; set-up: Reduction rate of serum uric acid: concentration or dose not given beside the values; details: for Reduction rate of serum uric acid / Content of serum uric acid: intravenous; for Reduction rate of serum uric acid: 24 h after administration vs before administration; for Content of serum uric acid: 24 h after administration
Description: The experiment was done by reference to Komoriya K, Osada Y, Hasegawa M, Horiuchi H, Kondo S, Couch R C, Griffin T B. Hypouricemic effect of allopurinol and the novel xanthine oxidase inhibitor TEI-6720 in chimpanzees. Eur J Pharmacol. 1993 Dec. 21; 250(3): 455-60.
Each compound was tested in three non-naïve cynomolgus monkeys (1 #, 2 # and 3 #), wherein the monkeys were administered with test samples by intravenous injection. Blood was collected from the vein before administration and 1 h, 3 h, 6 h and 24 h after administration. The blood was left still at room temperature. The serum was collected by centrifugation. The content of uric acid in serum was measured. Reduction rate of serum uric acid=(average uric acid content before administration−average uric acid content after administration)/average uric acid content before administration*100%.

[5] = test system: MSU-induced gouty arthritis; experiment: MSU-induced gouty arthritis, toe volume; format: in vivo, Male Wistar rats; details: for Inhibition of toe volume change (%): vs model group; for effect on increase of the toe volumes in the test rats (in words): compared with the model group
Description: The experiment was done by reference to Hsin-Pai Lee, Shi-Ying Huang, Yen-You Lin. Soft Coral-Derived Lemnalol Alleviates Monosodium Urate-Induced Gouty Arthritis in Rats by Inhibiting Leukocyte Infiltration and iNOS, COX-2 and c-Fos Protein Expression. […] 2013, 11, 99-113.
One gram of uric acid was weighed, introduced into 200 mL of boiling water and heated. Then, NaOH (2 mol/L) was added until pH reached 9. The solution became clear, and was cooled at room temperature and then left still overnight. MSU was obtained after filtration, which was dried at 60° C. for 24 h and then sterilized at a high temperature of 180° C.
The toe volumes of the rats were measured one day prior to the experiment. The rats were administered with the solvent by subcutaneous injection in the model group at a dose of 5 mL/kg, while the rats were administered with test samples by subcutaneous injection in administration groups at a dose of 5 mg/kg. Rats were anesthetized immediately after administration and were injected with 0.09 mL of MSU suspension into the joint cavity of the left ankle. The volume of the left toe was measured in rats 9 h after the injection of MSU into the ankle joint cavity.
The toe volumes of the rats were measured one day prior to the experiment. The rats were administered with the solvent by subcutaneous injection in the model group at a dose of 15 mL/kg, while the rats were administered with test samples by subcutaneous injection in administration groups at a dose of 15 mg/kg or 10 mg/kg. Rats were anesthetized immediately after administration and were injected with 0.09 mL of MSU suspension into the joint cavity of the left ankle. The volume of the left toe was measured in rats 9 h after the injection of MSU into the ankle joint cavity.
The toe volumes of rats were measured one day prior to the experiment. The rats were administered with the solvent by subcutaneous injection in the model group at a dose of 15 mL/kg, while the rats were administered with the test sample by subcutaneous injection in administration group at a dose of 15 mg/kg. Rats were anesthetized immediately after administration and were injected with 0.09 mL of MSU suspension into the joint cavity of the left ankle. The volume of the left toe in each rat was measured 9 h after the injection of MSU into the ankle joint cavity.

[6] = test system: MSU-induced gouty arthritis; experiment: Pain value in rats with gouty arthritis (electronic Von Frey pain threshold detector); format: in vivo, Male Wistar rats
Description: The rats with gouty arthritis were placed in a metabolic cage, and the palm center of the left foot of each rat was irritated with an electronic Von Frey pain threshold detector. The maximum stress value was recorded when each rat withdrew its foot, and the value was the pain value of that rat.

[7] = test system: TNF-α; experiment: LPS-induced TNF-α release; format: in vivo, Male BALB/C mice
Description: The experiment was conducted by reference to Pascale Gaillard, Isabelle Jeanclaude-Etter, etc. Design and Synthesis of the First Generation of Novel Potent, Selective, and in Vivo Active (Benzothiazol-2-yl)acetonitrile
BALB/C mice were raised in the SPF-grade animal room for 1 week, and were then randomly divided into the corresponding model group and the administration groups according to the body weight. The […] were administered with the solvent or the test samples by subcutaneous injection at a dose of 10 mg/kg. The rats were administered with LPS by intraperitoneal injection at a dose of 15 mg/kg 30 min after the administration of the solvent or the test samples. The mice were anesthetized with sodium pentobarbital (45 mg/kg by intraperitoneal injection) 1 h after LPS administration. The blood was collected by cardiac puncture, and the content of TNF-α (tumor necrosis factor) in plasma was measured with a Mouse TNF-α Elisa Ready-set-go kit.

[8] = test system: IFNγ; experiment: ConA-induced IFNγ release; format: in vivo, Male C57BL/6 mice
Description: The experiment was conducted by reference to Dalya R. Soondl, Elisa Bjørgo, etc. PI3K p110δ regulates T cell cytokine production during primary and secondary immune responses in mice and humans. Blood. Author manuscript; available in PMC 2013 Mar. 11; and Gabriele Sass, Sonja Heinlein, etc. CYTOKINE EXPRESSION IN THREE MOUSE MODELS OF EXPERIMENTAL HEPATITIS. CYTOKINE, Vol. 19, No. 3 (7 Aug.), 2002: pp 115-120.
The C57BL/6 mice were raised in the SPF-grade animal room for 1 week, and were then randomly divided into the corresponding model group and the administration groups according to the body weight. The […] were administered with ConA by the tail vein injection at a dose of 15 mg/kg 30 min after the administration of the solvent or the test samples by subcutaneous injection at a dose of 20 mg/kg. After the mice were anesthetized with sodium pentobarbital (45 mg/kg by intraperitoneal injection) 3 h after administration of ConA, the blood was collected by cardiac puncture. The blood was placed in the centrifuge tube without anticoagulant and left still at room temperature. One hour later, the blood was centrifuged. The serum was extracted and stored at −80° C. The content of IFNγ (γ-interferon) in the serum was detected by a Mouse IFNγ Elisa

[9] = Example 5, 10 mg/kg subcutaneous, 9 h after MSU

SMILES: COc1cc2c(c(OC)c1OC)-c1ccc(OC)c(=O)cc1[C@@H](NC(C)=O)CC2 [Colchicine, colchicine, reference compound]
- IL-1β [1]: 112.6 pg/mL
- KC [1]: 9892.7 pg/mL
- TNF-α [1]: 32.2 pg/mL
- Leukocyte count: Basophil [2]: 0 ± 0 *10^4/air sacs
- Leukocyte count: Eosinocyte [2]: 7.8 ± 2.0 *10^4/air sacs
- Leukocyte count: Lymphocyte [2]: 12.1 ± 2.5 *10^4/air sacs
- Leukocyte count: Monocyte [2]: 171.7 ± 20.1 *10^4/air sacs
- Leukocyte count: Neutrophil [2]: 21.3 ± 6.6^$ *10^4/air sacs
- Total cell count [2]: 212.9 ± 28.8^$ *10^4/air sacs
- effect on increase of the total cell count and neutrophil count in the lavage fluid caused by MSU (in words) ([2]; compound A at the oral doses of 30 mg/kg and 100 mg/kg): significantly inhibit

SMILES: CCCCn1c(=O)n(C)c(=O)c2[nH]c(Cl)nc21 [Compound C, 8-chloro-1-methyl-3-butyl-3,7-dihydro-1H-purine-2,6-dione]
- t1/2z [3]: 41.49 ± 12.31 h
- effect on serum uric acid levels in the test monkeys (in words) ([4]; compared to the levels measured before administration): significantly reduce
- Reduction rate of serum uric acid ([4]; animal 1#): 20.3%
- Reduction rate of serum uric acid ([4]; animal 2#): 41.0%
- Reduction rate of serum uric acid ([4]; animal 3#): 13.9%
- Reduction rate of serum uric acid ([4]; mean): 25.7%
- Content of serum uric acid ([4]; animal 1#): 45.8 µmol/L
- Content of serum uric acid ([4]; animal 2#): 38.3 µmol/L
- Content of serum uric acid ([4]; animal 3#): 50.7 µmol/L
- Content of serum uric acid ([4]; mean): 44.9 µmol/L
- Change of toe volume ([5]; Example 4, 5 mg/kg subcutaneous, 9 h after MSU injection into left ankle joint cavity): 0.451 mL
- Inhibition of toe volume change (%) ([5]; Example 4, 5 mg/kg subcutaneous, 9 h after MSU): 10.5%
- effect on increase of the toe volumes in the test rats (in words) ([5]; Example 4, 5 mg/kg): significantly inhibit
- Toe volume change [5, 9]: 0.261 mL
- Inhibition of toe volume change (%) [5, 9]: 35.4%
- effect on increase of the toe volumes in the test rats (in words) ([5]; Example 5, 15 mg/kg or 10 mg/kg): significantly inhibit
- Pain value ([6]; Example 5, 10 mg/kg subcutaneous, left foot, Von Frey): 43.46 g
- effect on pain values in the test rats (in words) ([6]; Example 5, compared with the model group): significantly increase
- inhibition (%) ([7]; TNF-α in plasma vs model group, 10 mg/kg subcutaneous): 24.4%
- effect on content of TNF-α in the plasma of the test mice (in words) ([7]; compared with the model group): significantly reduce
- Content of TNF-α ([7]; plasma, 10 mg/kg subcutaneous 30 min before LPS 15 mg/kg i.p., 1 h after LPS): 1208 pg/mL
- inhibition (%) ([8]; IFN-γ in serum vs model group, 20 mg/kg subcutaneous): 19.4%
- effect on content of IFNγ in the serum of the test mice (in words) ([8]; compared with the model group): significantly reduce
- Content of IFN-γ ([8]; serum, 20 mg/kg subcutaneous 30 min before ConA 15 mg/kg tail vein, 3 h after ConA): 2644 pg/mL

SMILES: C[C@@H]1C[C@H]2[C@@H]3CCC4=CC(=O)C=C[C@]4(C)[C@@]3(F)[C@@H](O)C[C@]2(C)[C@@]1(O)C(=O)CO [Dexamethasone, dexamethasone, reference compound]
- IL-1β [1]: 27.8 pg/mL
- KC [1]: 1653.5 pg/mL
- TNF-α [1]: 6.6 pg/mL
- Leukocyte count: Basophil [2]: 0 ± 0 *10^4/air sacs
- Leukocyte count: Eosinocyte [2]: 4.8 ± 1.6 *10^4/air sacs
- Leukocyte count: Lymphocyte [2]: 7.5 ± 1.1 *10^4/air sacs
- Leukocyte count: Monocyte [2]: 171.0 ± 19.2 *10^4/air sacs
- Leukocyte count: Neutrophil [2]: 13.8 ± 2.4^$ *10^4/air sacs
- Total cell count [2]: 197.2 ± 22.8^$$ *10^4/air sacs

Reference: patent US10322132B2, “Prevention or treatment of uratic or gouty diseases” (SHANTON PHARMA CO., LTD., priority 2015, dated 2019)
